Article PMC5469750, “Antibacterial and detoxifying activity of NZ17074 analogues with multi-layers of selective antimicrobial actions against Escherichia coli and Salmonella enteritidis” (Scientific Reports, 2017)
Converted amounts (≈) assume the structure as drawn. Like-named read-outs stand apart in the source and are kept apart here. Where a SMILES comes first, the peptide text is derived from it. Bridges are numbered along the chain shown (N, C = ends). Where no end group is shown, it is not given here.

Key:
[1] = system: E. coli CVCC1515; assay type: cell-based, Escherichia coli
Method: (§1) The antimicrobial activity of peptides was determined by the microbroth dilution method. The bacterial strains were incubated in Mueller-Hinton (MH) medium at 37 °C overnight until the mid-log phase (OD600 nm reading of 0.5). Bacteria were diluted to 1 × 10^5 CFU/ml and added into 96-well plates, followed by the addition of serial dilutions of peptides (from 0.0625 to 128 μg/ml). The plates were incubated at 37 °C for 18–24 h. The MIC value was determined as the lowest peptide concentration at which no bacterial growth was observed. All tests were conducted in triplicate.

[2] = system: S. aureus ATCC25923; assay type: cell-based, Staphylococcus aureus
Method: as §1

[3] = system: S. suis CVCC606; assay type: cell-based
Method: as §1

[4] = system: Bacillus subtilis ATCC6633; assay type: cell-based
Method: as §1

[5] = system: Staphylococcus aureus ATCC43300; assay type: cell-based
Method: as §1

[6] = system: Enterococcus faecium CMCC1.2136; assay type: cell-based
Method: as §1

[7] = system: S. pullorum CVCC1802; assay type: cell-based
Method: as §1

[8] = system: Escherichia coli CVCC195; assay type: cell-based
Method: as §1

[9] = system: Listeria ivanovii ATCC19119; assay type: cell-based
Method: as §1

[10] = system: Salmonella typhimurium ATCC14028; assay type: cell-based
Method: as §1

[11] = system: Pseudomonas aeruginosa CICC10419; assay type: cell-based
Method: as §1

[12] = system: S. pullorum CVCC1789; assay type: cell-based
Method: as §1

[13] = system: Candida albicans CGMCC2.2411; assay type: cell-based
[14] = system: P. aeruginosa CICC21630; assay type: cell-based, Pseudomonas aeruginosa
Method: as §1

[15] = system: E. coli CVCC195; assay type: cell-based, Escherichia coli; conditions: CVCC195, 3 h, 1
Method: (§2) Radioactive precursors were added into cells (1 μCi/ml) and shaken at 37 °C for 20 min. Ice-cold 25% trichloroacetic acid (TCA) was added and placed on ice for 30 min. The cells were centrifuged and washed twice with ice-cold 25% TCA. After drying, the samples were mixed with scintillation fluid and counted for their radioactivity using a MicroBeta 1450 scintillation counter (Perkin Elmer)[62].

[16] = system: S. enteritidis CVCC3377; assay type: cell-based, Salmonella enteritidis
Method: as §1

[17] = system: S. enteritidis CVCC3377; assay type: cell-based, Salmonella enteritidis; conditions: CVCC3377, 3 h, 1
Method: as §2

[18] = system: S. choleraesuis CVCC503; assay type: cell-based
Method: as §1

[19] = LPS binding, BODIPY-TR-cadaverine (BC) displacement
Method: Equal volumes of 40 μg/ml LPS and 10 μM BC in 50 mM Tris buffer (pH 7.4) were mixed, added into 96-well plates and incubated in the dark for 4 h at room temperature. […] Fluorescence was then measured using a microplate reader (excitation/emission, 580/620 nm). The occupancy rate was calculated by the following equation: BC displacement rate (%) = (1 − (F0 − F)/(F0 − Fmax)) × 100, wherein F0 is the fluorescence intensity of the solution of BC alone; Fmax is the fluorescence intensity in the presence of LPS at the saturation concentration, and F is the intensity of LPS:BC mixtures at varying displacer concentrations.

[20] = system: E. coli CICC21530 (serotype O157:H7); assay type: cell-based, Escherichia coli; conditions: microbroth dilution, MH medium, 1 × 10^5 CFU/ml, 37 °C, 18–24 h; representative of three independent experiments
Method: as §1

[21] = system: murine erythrocytes; design: method as in PMID 24816779; conditions: 128 μg/ml; parent peptide; cited from earlier work
[22] = Calcein leakage from model eukaryotic membranes; assay type: biochemical; conditions: POPC/cholesterol = 1:1 LUVs (500 μM lipid), 64 to 256 μg/ml, 5 min; 100% = 1% Triton X-100; n = 3
Method: Different lipids (Avanti Polar Linpids, Inc.) were used to prepare model membranes composed of POPC/ POPG (4:1 molar ratio) and POPC/cholesterol (1:1) by the extrusion method as previously described. POPC/POPG and POPC/cholesterol LUVs were used to mimic gram-negative bacterial and eukaryotic membranes, respectively. […] After incubation for 5 min, the fluorescence (F) (λexcitation = 492 nm, λemission = 518 nm) was measured on a microplate reader.

[23] = microbroth dilution, MH medium, 1 × 10^5 CFU/ml, 37 °C, 18–24 h, representative of three independent experiments

Molecule	MIC ([1]; CVCC1515) [mg/L]	MIC ([2]; ATCC25923) [mg/L]	MIC [3] [mg/L]	MIC ([4]; ATCC6633) [mg/L]	MIC ([5]; ATCC43300) [mg/L]	MIC ([6]; CMCC1.2136) [mg/L]	MIC ([7]; CVCC1802) [mg/L]	MIC ([8]; CVCC195) [mg/L]	MIC ([9]; ATCC19119) [mg/L]	MIC ([10]; ATCC14028) [mg/L]	MIC ([11]; CICC10419) [mg/L]	MIC ([12]; CVCC1789) [mg/L]	MIC ([13]; CGMCC2.2411) [mg/L]	MIC ([14]; CICC21630) [mg/L]	inhibition of 3H-thymidine incorporation (DNA synthesis) [15] [%]	MIC ([16]; CVCC3377) [mg/L]	inhibition of DNA synthesis (3H-thymidine) [17] [%]	MIC ([18]; CVCC503) [mg/L]	MIC [20] [mg/L]	also measured
CC(C)[C@@H]1NC(=O)[C@H](C)NC(=O)[C@H](CC(N)=O)NC(=O)[C@H](CCCNC(=N)N)NC(=O)[C@H](Cc2ccc(O)cc2)NC(=O)[C@H](C(C)C)NC(=O)[C@@H]2CSSC[C@H](NC(=O)[C@H](C(C)C)NC(=O)[C@H](CCCNC(=N)N)NC1=O)C(=O)N[C@@H](Cc1c[nH]cn1)C(=O)N[C@@H](CCCNC(=N)N)C(=O)N[C@@H](CCCNC(=N)N)C(=O)N[C@H](C(=O)N[C@@H](CC(N)=O)C(=O)O)CSSC[C@H](NC(=O)[C@H](Cc1ccccc1)NC(=O)[C@H](C)N)C(=O)N[C@@H](Cc1c[nH]c3ccccc13)C(=O)N[C@@H](CC(N)=O)C(=O)N[C@@H](C(C)C)C(=O)N2 [N2] (H-AFCWNVCVYRNAVRVCHRRCN-OH; disulfide 3-20, 7-16)	0.5 (≈ 0.195 µM)	0.25 (≈ 0.0974 µM)	16 (≈ 6.24 µM)	0.5 (≈ 0.195 µM)	16 (≈ 6.24 µM)	4 (≈ 1.56 µM)	0.25 (≈ 0.0974 µM)	0.25 (≈ 0.0974 µM)	4 (≈ 1.56 µM)	1 (≈ 0.39 µM)	2 (≈ 0.779 µM)	0.5 (≈ 0.195 µM)	32 (≈ 12.5 µM)	2 (≈ 0.779 µM)	28.6	0.125 (≈ 0.0487 µM)	35.5	–	–	inhibition of 3H-uridine incorporation (RNA synthesis) [15]: 18.7%; inhibition of protein synthesis (3H-leucine) [17]: 17.0%
CC(C)[C@@H]1NC(=O)CNC(=O)[C@H](CC(N)=O)NC(=O)[C@H](CCCNC(=N)N)NC(=O)[C@H](Cc2ccc(O)cc2)NC(=O)[C@H](C(C)C)NC(=O)[C@@H](NC(=O)[C@@H](NC(=O)[C@H](CC(N)=O)NC(=O)[C@H](Cc2c[nH]c3ccccc23)NC(=O)[C@H](C)NC(=O)[C@H](Cc2ccccc2)NC(=O)CN)C(C)C)CSSC[C@@H](C(=O)N[C@@H](Cc2c[nH]cn2)C(=O)N[C@@H](CCCNC(=N)N)C(=O)N[C@@H](CCCNC(=N)N)C(=O)N[C@@H](C)C(=O)N[C@@H](CC(N)=O)C(=O)O)NC(=O)[C@H](C(C)C)NC(=O)[C@H](CCCNC(=N)N)NC1=O [N6] (H-GFAWNVCVYRNGVRVCHRRAN-OH; disulfide 7-16)	1 (≈ 0.404 µM)	0.25 (≈ 0.101 µM)	16 (≈ 6.46 µM)	0.5 (≈ 0.202 µM)	16 (≈ 6.46 µM)	4 (≈ 1.62 µM)	0.5 (≈ 0.202 µM)	0.5 (≈ 0.202 µM)	–	2 (≈ 0.808 µM)	8 (≈ 3.23 µM)	0.5 (≈ 0.202 µM)	64 (≈ 25.8 µM)	4 (≈ 1.62 µM)	43.8	0.25 (≈ 0.101 µM)	61.8	2 (≈ 0.808 µM)	–	inhibition of RNA biosynthesis (3H-uridine) [17]: 5.7%
CC1(C)S[C@@H]2[C@H](NC(=O)[C@H](N)c3ccccc3)C(=O)N2[C@H]1C(=O)O [ampicillin]	–	–	–	–	–	–	–	–	–	–	–	–	–	–	–	–	–	–	–	BC displacement / binding to LPS ([19]; negative control, 50 mM Tris buffer pH 7.4): did not displace BC
GFAWNVAVYRNGVRVAHRRAN [N8]	16	2	>128	4	>64	16	32	32	–	>64	>128	>128	–	>128	–	1	–	>64	16	–
GFCWNVCVYRNGVRVCHRRCN (bicyclic or more) (disulfide 7-16, 3-20) [N1, parent marine peptide, variant of arenicin-3 (Tyr5 → Asn, Tyr17 → His) from the lugworm Arenicola marina, reference compound]	–	–	–	–	–	–	–	–	–	–	–	–	–	–	–	–	–	–	0.5	MIC [1, 23]: 0.25 mg/L; MIC [2, 23]: 0.5 to 1 mg/L; BC displacement percentage ([19]; 100 μM, 40 μg/ml LPS and 10 μM BC in 50 mM Tris buffer pH 7.4, 1 h, room temperature): 79.8%; MIC [18, 23]: 0.5 mg/L; MIC [3, 23]: 16 mg/L; MIC [4, 23]: 0.25 mg/L; MIC [5, 23]: 16 mg/L; MIC [6, 23]: >16 mg/L; MIC [7, 23]: 0.25 mg/L; MIC [8, 23]: 0.5 to 1 mg/L; MIC [9, 23]: 128 mg/L; MIC [10, 23]: 0.5 mg/L; MIC [11, 23]: 2 mg/L; MIC [12, 23]: 0.25 mg/L; MIC [13, 23]: 16 mg/L; MIC [14, 23]: 4 mg/L; hemolysis [21]: 3%; calcein dye leakage [22]: 2.5–25.3%; MIC [16, 23]: 0.25 mg/L
GFWNVVYRNGVRVHRRN [N5]	128	2	>128	64	>128	64	>128	64	128	128	>128	>128	>128	>128	–	4	–	>128	64	–
